In brackets after ≈: the same amount, converted by molar mass.

One data set concerns HCV GT1a replicon. Nature of the data set: HCV GT1a replicon, stably transfected Huh-Lunet cells. The conditions noted are these: for EC50: Hepatitis C virus, 72 h, stably transfected Huh-Lunet cells, 3 days. It is filed as cell-based, hepatitis C virus. On the procedure: Primary hepatocytes from humans, hamsters, dogs, and monkeys were purchased from BioreclamationIVT in 12-well plates seeded at confluence (0.88 × 10^6 cells/well). Huh-Lunet cells were obtained from ReBlikon GmbH (Mainz, Germany) ([19]). Huh-1C was derived from a GT1a replicon clone in which HCV replication was cured. All Huh-Lunet- and Huh-1C-based replicon cell lines were cultured in Dulbecco's modified Eagles' medium (DMEM) with GlutaMAX (Invitrogen, Carlsbad, CA) supplemented with 10% fetal bovine serum (FBS; HyClone, Logan, UT) and 100 U/ml penicillin (Invitrogen). Replicon cell lines containing genotype 1a (H77) and 2a (JFH1) were created as previously reported ([20][–][22]). Caco-2 cells were maintained in DMEM with sodium pyruvate, GlutaMAX supplemented with 1% penicillin-streptomycin, 1% nonessential amino acids, and 10% FBS in an incubator set at 37°C, 90% humidity, and 5% CO2.
GT1a, GT1b, and GT2a are authentic subgenomic replicons of the indicated strain. Creation of these HCV replicons was reported previously ([7]).
The EC50s, defined as the concentration at which there was a measured 50% decrease in HCV replicon level, were determined in replicon assay as previously described ([24]). Briefly, replicon cells were seeded into 96-well plates. Compounds were serially diluted in DMSO at 200× final concentrations and then added to the assay plate. Luciferase expression was quantified after 3 days of incubation using a commercial luciferase assay (Promega, Madison, WI). Data were analyzed using GraphPad Prism 6.0 (La Jolla, CA).
X represents log of compound concentration and Y represents replicon replication as the percentage of DMSO control. EC50s were calculated as an average from at least three independent experiments.
On the technique in general: A replicon is a self-replicating genome or part of one, used to study replication in cells.

Another data set in a line: in vitro. The conditions noted are these: 37°C, read-out: Plasma stability, half-life. It is filed as in vitro ADME. On the procedure:
(§1) Blood plasma and S9 stability was studied as described previously ([8]). In brief, the compounds were incubated at 2 μM in hamster, rat, dog, monkey, or human plasma samples for up to 4 h at 37°C. For S9 stability, the compounds were incubated at 2 μM in hamster, rat, dog, monkey, or human intestinal and hepatic S9 fractions for up to 90 min at 37°C in the presence of NADPH and uridine 5′-diphosphoglucuronic acid trisodium salt (UDPGA) (Sigma-Adrich). The samples were analyzed by liquid chromatography coupled to triple-quadrupole mass spectrometry (LC-MS/MS).
(§2) The data (analyte-to-internal standard peak area ratio) were plotted on a semilog scale and fitted using an exponential fit. The half-life (t1/2) was determined assuming first-order kinetics.

Another data set deals with T1, CES2 (Homo sapiens, UniProt O00748).
T1 construct: purchased R&D Systems (Minneapolis, MN)
T1 sequence (O00748 27-559): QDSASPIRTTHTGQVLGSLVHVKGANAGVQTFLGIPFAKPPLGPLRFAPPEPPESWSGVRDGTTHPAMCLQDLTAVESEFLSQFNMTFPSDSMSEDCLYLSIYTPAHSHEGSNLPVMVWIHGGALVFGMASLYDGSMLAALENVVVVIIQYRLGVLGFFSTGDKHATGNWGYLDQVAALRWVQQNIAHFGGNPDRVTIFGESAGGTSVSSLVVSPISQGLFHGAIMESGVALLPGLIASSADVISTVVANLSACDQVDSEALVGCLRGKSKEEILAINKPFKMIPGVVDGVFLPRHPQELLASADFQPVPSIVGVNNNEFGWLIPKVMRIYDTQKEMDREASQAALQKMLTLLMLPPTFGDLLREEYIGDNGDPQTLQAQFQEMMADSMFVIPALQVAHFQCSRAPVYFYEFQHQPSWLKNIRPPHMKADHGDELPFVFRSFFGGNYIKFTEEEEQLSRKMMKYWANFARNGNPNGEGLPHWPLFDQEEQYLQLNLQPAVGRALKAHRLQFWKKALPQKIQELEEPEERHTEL
Nature of the data set: Ester cleavage by CES2. It counts as biochemical. The note with it: GS-6620-containing diastereomeric mixture was used. How it is done: (§3) Biochemical assays studying prodrug cleavage have been described previously ([8]). In brief, the cleavages of GS2 by CATA, CES1, CES2, and HINT1 were assessed in vitro. The reaction substrates and products were monitored over time by high-performance liquid chromatography (HPLC).

The nature of data set [1]: Metabolic stability in intestinal S9 fraction, monkey. The note with it: monkey (cynomolgus). It counts as in vitro ADME. On the procedure: as §1, §2
Data set [2] in a line: Thermodynamic solubility (shaking flask, simulated intestinal fluid). It counts as physicochemical. The note with it: for solubility thermodynamic: fessif, thermodynamic from solid, crystalline free base GS-6620, amorphous GS2. How it is done: (§4) The samples were incubated at 37°C for 1 h, followed by centrifugation at 2,800 relative centrifugal force (RCF) for 30 min at room temperature. Thermodynamic solubility was determined with the crystalline-free base of GS-6620 or amorphous GS2 using the shaking flask method. The concentrations of the compounds in supernatants were determined by HPLC.

Another data set can be described thus: Kinetic solubility. It is filed as physicochemical. The conditions noted are these: 37 °C, kinetic from dmso stock. On the procedure: as §4
The next data set has as its target T2, CatA (Homo sapiens, UniProt P10619).
T2 construct: purified from peripheral blood mononuclear cells (PBMCs) according to a previously published procedure; from tissue; host or cells: peripheral blood mononuclear cells (PBMCs)
T2 sequence (P10619 29-480): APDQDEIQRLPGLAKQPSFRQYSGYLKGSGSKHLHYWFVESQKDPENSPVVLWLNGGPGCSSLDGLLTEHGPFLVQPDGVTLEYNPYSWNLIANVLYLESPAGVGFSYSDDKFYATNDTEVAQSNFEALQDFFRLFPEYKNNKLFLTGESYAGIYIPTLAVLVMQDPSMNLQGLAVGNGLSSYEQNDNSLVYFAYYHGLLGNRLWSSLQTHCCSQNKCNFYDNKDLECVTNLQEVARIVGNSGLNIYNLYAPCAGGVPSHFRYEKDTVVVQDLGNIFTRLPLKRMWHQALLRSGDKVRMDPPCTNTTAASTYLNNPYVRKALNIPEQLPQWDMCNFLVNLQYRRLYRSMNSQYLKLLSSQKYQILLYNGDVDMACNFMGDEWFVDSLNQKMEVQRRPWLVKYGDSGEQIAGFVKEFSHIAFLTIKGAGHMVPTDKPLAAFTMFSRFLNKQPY
Nature of the data set: Ester cleavage by CatA. It is filed as biochemical. The conditions noted are these: for Amidate ester cleavage, specific activity: CatA, GS-6620-containing diastereomeric mixture was used. On the procedure:
as §3

The mark [3] stands for this setting: fed-state simulated intestinal fluid.
Setting [4] is: 0.1 N HCl, simulated gastric fluid, HCl (pH 1.0).

On to `CC(C)OC(=O)C(C)(C)N[P@](=O)(OC[C@H]1O[C@@](C#N)(c2ccc3c(N)ncnn23)[C@](C)(O)[C@@H]1O)Oc1ccccc1` [GS2], for which, in the data set with HCV GT1a replicon (EC50 ratio, Huh-Lunet), the “Fold (GS2/GS-6620)” value came to 3.5. For the same compound, the EC50 (usually the concentration at which the effect is half-maximal) with HCV GT1a replicon is 380 ± 150 nM. In addition, the half-life (in general, the time needed for the level to fall by half in the phase considered) at 2 μM is greater than 10 h in the data set “in vitro” (dog plasma); greater than 10 h in “in vitro” (hamster plasma); greater than 10 h in the data set “in vitro” (human plasma); greater than 10 h in the data set “in vitro” (monkey (cynomolgus) plasma); 0.0833 h in the data set “in vitro” (rat plasma); 3.83 h in data set [1]. For the same compound, the “Amidate ester cleavage, specific activity” value on CES2 is “Stable”; at CatA, 385 pmol/min/µg. Moreover, in data set [2], the “difference in solubility between fed and fasted simulated intestinal fluid” value is recorded as “less than 30%”. Moreover, in data set [2] (setting [3]), the “thermodynamic solubility higher than GS-6620” value was greater than 30 fold. In addition, in data set [2] (setting [3]), the thermodynamic solubility – broadly, the concentration in solution at equilibrium with solid – was 430 µM (≈ 253 µg/mL). In addition, the solubility (kinetic) (commonly solubility judged after dilution from a stock solution rather than from solid) at 1 h in the data set “Kinetic solubility” (setting [4]) was greater than 100 µM; in the data set “Kinetic solubility” (aqueous buffer, PBS (pH 7.0)), greater than 100 µM. Further, on CatA (isopropyl ester cleavage), the “CatA activity lower than toward GS-6620-containing diastereomeric mixture” value was 11 fold.

Regarding `CC(C)OC(=O)[C@H](C)N[P@](=O)(OC[C@H]1O[C@@](C#N)(c2ccc3c(N)ncnn23)[C@](C)(O)[C@@H]1OC(=O)C(C)C)Oc1ccccc1` [GS-6620, reference compound], in the data set on HCV GT1a replicon, the response was half-maximal at 110 ± 50 nM (EC50). For the same compound, the half-life at 2 μM was 7.17 h in “in vitro” (dog plasma); 2 h in the data set “in vitro” (hamster plasma); 6.17 h in the data set “in vitro” (human plasma); 1.33 h in the data set “in vitro” (monkey (cynomolgus) plasma); less than 0.0333 h in the data set “in vitro” (rat plasma); 0.0933 h in data set [1]. For the same compound, the “3′-Ester cleavage, specific activity” value on CES2 turned out to be 60.1 pmol/min/µg. Further, the entries for the “Amidate ester cleavage, specific activity” value on CES2 and at CatA were “Stable” and 4,163 pmol/min · μg, respectively. Besides, the solubility (thermodynamic) in data set [2] (setting [3]) was 7.8 µM (≈ 5.03 µg/mL). In addition, the solubility (kinetic) at 1 h was 87 µM (≈ 56.1 µg/mL) in the data set “Kinetic solubility” (setting [4]) and 46 µM (≈ 29.7 µg/mL) in the data set “Kinetic solubility” (aqueous buffer, PBS (pH 7.0)).
